Results taken from patent publication EP4647428A1, “COMPOUND CONTAINING 2-METHYL-2-(3-(PIPERIDIN-3-YL)PHENOXY)-2-METHYLPROPANAMIDE SKELETON” (Jiangsu Mingsheng Jutai Biotechnology Co. Ltd, priority 2023, dated 2024).

Key:
SW480 = test: CCK8 cell inhibition test on SW480 cells; assay type: cell-based; conditions: Homo sapiens; CCK-8, SW480 cells, 24 hours incubation at 37°C, compound 20 µM to 0.15625 µM in DMEM (2% FBS)
Procedure: Cells were digested, counted, and plated in a 96-well plate (flat-bottomed, transparent) with 10,000 cells/100 µl DMEM (10% FBS) per well . • 2. Observe the cell status on the next day and start adding drugs after the cells have fully adhered to the wall; • 3. Dilute the compound in DMEM (2% FBS) in a serial dilution format to concentrations of 20 µM, 10 µM, 5 µM, 2.5 µM, 1.25 µM, 0.625 µM, 0.3125 µM, 0.15625 µM, and 0 µM (with equal volume of DMSO). • 4. Add 100 µl of the above compounds at different concentrations to each well. Repeat for each concentration gradient in duplicate. Leave three blank wells (add only DMEM 2% FBS culture medium without cells) . • 5. Incubate at 37°C for 24 hours . • 6. Add 10 µl of CCK-8 Enhanced Solution to each well. Since the amount of CCK-8 added to each well is relatively small, there may be errors due to the reagent sticking to the well wall. It is recommended to gently tap the culture plate after adding the reagent to help mix it. • 7. Incubate in the incubator for 0.5-4 hours: The amount of formazan formed varies depending on the cell type. In most cases, incubation for 1 hour is sufficient. If color development is insufficient, continue incubation to confirm optimal conditions. • 8. Measure the absorbance at 450nm and 600nm (excluding interference from the reagent background color and the absorbance of the well plate itself); • 9. The final absorbance value is OD450nm-OD600nm, and the inhibition rate is calculated; Inhibition rate = [(Ac−As)/(Ac−Ab)] × 100% [formula] • As: absorbance of the experimental well (culture medium containing cells, CCK-8, and drug to be tested); • Ac: absorbance of control wells (culture medium containing cells, CCK-8, and no test drug); • Ab: absorbance of blank wells (culture medium without cells, test drugs, or CCK-8).

β-catenin = biological target: T1, β-catenin (Homo sapiens, UniProt P35222); test: SRP test (Biacore T200, affinity fitting KD to coupled ligand β-catenin); assay type: binding; conditions: Biacore T200, CM5 chip, 25°C, HEPES pH 7.4
T1 sequence (P35222 1-781): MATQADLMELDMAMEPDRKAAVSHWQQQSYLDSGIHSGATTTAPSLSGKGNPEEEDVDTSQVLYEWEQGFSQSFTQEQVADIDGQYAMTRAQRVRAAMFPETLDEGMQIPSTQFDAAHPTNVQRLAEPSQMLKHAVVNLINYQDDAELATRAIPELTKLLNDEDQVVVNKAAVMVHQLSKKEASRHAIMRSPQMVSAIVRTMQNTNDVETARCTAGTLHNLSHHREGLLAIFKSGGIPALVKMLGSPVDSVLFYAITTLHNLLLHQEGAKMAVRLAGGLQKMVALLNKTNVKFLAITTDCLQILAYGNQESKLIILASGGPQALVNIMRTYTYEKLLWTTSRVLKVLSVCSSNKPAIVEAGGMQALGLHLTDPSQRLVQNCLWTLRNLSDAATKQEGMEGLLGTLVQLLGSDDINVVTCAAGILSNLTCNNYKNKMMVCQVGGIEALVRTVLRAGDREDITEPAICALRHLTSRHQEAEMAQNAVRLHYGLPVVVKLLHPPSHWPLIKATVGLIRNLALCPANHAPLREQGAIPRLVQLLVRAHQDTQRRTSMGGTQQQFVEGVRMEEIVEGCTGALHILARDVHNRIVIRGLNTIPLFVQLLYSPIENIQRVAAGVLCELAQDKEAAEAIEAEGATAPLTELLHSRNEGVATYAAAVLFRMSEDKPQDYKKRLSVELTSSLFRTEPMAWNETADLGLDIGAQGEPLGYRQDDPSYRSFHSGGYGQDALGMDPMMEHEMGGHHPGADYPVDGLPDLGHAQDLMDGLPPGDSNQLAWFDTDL
Procedure: • 1. The analyte is in powder form. • 2. The temperature is 25°C. • 3. The analytical equipment used was Biacore T200 instrument.
• 1. Ligand β-catenin was diluted with HEPES (pH 7.4) to 0.5 mg/mL • 2. The analyte was dissolved in DMSO and diluted with 0.1% DMSO HEPES (pH 7.4)
3. Experimental Procedure
• 1. Start the Biacore T200 instrument according to standard operating procedures. • 2. Prepare 500 ml of HEPES buffer (pH 7.4) and deionized water (filtered through a 0.22 µm membrane) for rinsing the injection needle. • 3. Start installing the chip and install the CM5 chip according to the standard process. • 4. Prepare to start the formal experiment. The buffer solution will flush the flow system inside the entire system at a high flow rate. • 5. Choose the appropriate procedure based on the sample size. • 6. Start the capture chip. Prepare a sufficient volume of ligand β-catenin, EDC/NHS, and blocking buffer. Initiate the coupling procedure with a 7-minute coupling time and a flow rate of 10 µl/min. The final ligand coupling volume is approximately 16,000 RU. • 7. After the coupling is completed, start the sample detection and set the analyte binding time to 120 s. • The flow rate was 30 µL/min; the dissociation time was 200 s, the flow rate was 30 µL/min; the regeneration time was 30 s, • The flow rate was 30 µL/min. • 8. […]

SMILES | IC50 (SW480) | Kd (β-catenin)
CC(C)c1ccc(-c2cccc(S(=O)(=O)N3CCCC(c4cccc(OC(C)(C)C(=O)NCC(=O)N5CC[C@@H](CN)C5)c4)C3)c2)cc1 (stereo partly shown) [Compound 115-012] | < 2970 nM | 760 nM
CC(C)c1ccc(-c2cccc(S(=O)(=O)N3CCCC(c4cccc(OC(C)(C)C(=O)NCC(=O)N5CCC[C@H]5CN)c4)C3)c2)cc1 (stereo partly shown) [Compound 115-010] | 3560 nM | 284 nM
